Tests used:
[1] = molecular target: T1, TOP1-DNA covalent complexes (Homo sapiens, UniProt P11387); assay: Band depletion assay for TOP1 cleavage complexes; type: cell-based; conditions: MCF7/RC vs MCF7; CPT 25 μM for 15 min
T1 construct: endogenous in cells; host or cells: MCF7 and MCF7/RC breast cancer cells
T1 sequence (P11387 2-765 limits assumed): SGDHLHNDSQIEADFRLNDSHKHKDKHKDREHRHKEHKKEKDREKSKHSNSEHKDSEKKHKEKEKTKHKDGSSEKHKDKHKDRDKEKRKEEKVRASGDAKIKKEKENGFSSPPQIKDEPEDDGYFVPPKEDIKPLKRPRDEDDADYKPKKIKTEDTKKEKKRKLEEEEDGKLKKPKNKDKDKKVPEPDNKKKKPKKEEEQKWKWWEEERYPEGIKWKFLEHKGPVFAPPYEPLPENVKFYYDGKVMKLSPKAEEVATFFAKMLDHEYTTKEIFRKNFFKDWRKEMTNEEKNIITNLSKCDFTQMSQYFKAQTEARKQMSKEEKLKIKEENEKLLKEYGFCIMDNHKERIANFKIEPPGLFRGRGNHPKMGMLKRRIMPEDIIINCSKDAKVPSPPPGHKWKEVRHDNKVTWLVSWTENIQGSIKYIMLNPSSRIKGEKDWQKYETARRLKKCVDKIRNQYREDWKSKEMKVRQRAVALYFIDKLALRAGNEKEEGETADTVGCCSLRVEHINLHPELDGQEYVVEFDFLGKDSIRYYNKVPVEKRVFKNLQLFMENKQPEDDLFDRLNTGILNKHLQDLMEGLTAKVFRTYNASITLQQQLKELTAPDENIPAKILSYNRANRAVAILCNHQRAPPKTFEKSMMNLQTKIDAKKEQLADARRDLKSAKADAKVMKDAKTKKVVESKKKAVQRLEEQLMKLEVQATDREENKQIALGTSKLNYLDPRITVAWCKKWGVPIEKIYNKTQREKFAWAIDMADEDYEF
Method: Band depletion assay for TOP1 cleavage complexes. Cells (106/sample) are treated with CPT (25 μM in 1% DMSO) for various times at 37° C. Cells are then lysed with 0.2 N NaOH containing 2 mM EDTA as described previously (14). Cell lysates are then neutralized with 1/10 volume of a solution containing 10% NP-40, 1 M Tris (pH 7.4), 0.1 M MgCl2, 0.1 M CaCl2, 10 mM dithiothreitol, 1 mM EGTA, and a mixture of peptide protease inhibitors (100 μg/ml each of leupeptin, pepstatin, and aprotinin), followed by the addition of another 1/10 volume of 2 N HCl. Reactions are terminated by the addition of SDS-PAGE sample buffer. Immunoblotting analysis of cell lysates is carried out using anti-Scl-70 antibody from scleroderma patients as described above.

[2] = tested on: ZR-75-1 cells stably expressing ISG15 or UbcH8 shRNA; assay: Clonogenic survival assay; type: cell-based
Method: Cell survival assays. MTT assay: Cells (3000 cells/well) are plated in 96-well microtiter plates and incubated at 37° C. in a CO2 incubator. For determination of IC50, cells are treated with varying concentrations of CPT for four days. Cells are then incubated with MTT (3-(4,5-dimethylthiazol-2-yl)-2,5-diphenyltetrazolium bromide) for 4 hrs at 37° C. The dye produced by viable cells is dissolved in DMSO and the optical density measured at 570 nm. All assays are performed at least twice in six replicate wells. Clonogenic assay: Cells (100-500 cells/plate) are plated in 6-well tissue culture plates and incubated at 37° C. in a CO2 incubator. Cells are then treated with various concentrations of CPT for 1 hr. Following CPT treatment, cells are washed free of CPT and placed in fresh medium. After 10 days, survived colonies are stained with Methylene blue and counted using the Minicount machine. Cell counting assay: Logarithmically growing cells are treated with various concentrations of CPT for 1 hr. CPT is then removed by washing the plates with CPT-free medium four times. […] Cell survival is determined by counting cells using the Coulter counter after trypsinization.
Example No. 3. […] Cell lysates of ZR-75-1 clones expressing either control shRNA (lane #1) or ISG15 shRNA (lanes #2) are analyzed by 15% SDS-PAGE. […] Equal protein loading is assessed by re-probing the same membrane with anti-tubulin antibody (lower panel). […] Equal protein loading is assessed by re-probing the same membrane blot with anti-tubulin antibody (lower panels).
Example No. 4. […] Cell lysates prepared from ZR-75-1 clones expressing either control shRNA (lane #1) or UbcH8 shRNA (lanes #2 and 3, from two independent clones), and the purified UbcH8 protein (lane #4) are analyzed by 15% SDS-PAGE. […] Equal protein loading is assessed by re-probing the same membrane with anti-tubulin antibody (lower panels). […] Cell lysates prepared from ZR-75-1 clones expressing either control shRNA (lane #1) or UbcH8 shRNA (lanes #2 and 3, two independent clones), and the purified UbcH8 protein (lane #4) are analyzed by 15% SDS-PAGE. […]

## CC[C@@]1(O)C(=O)OCc2c1cc1n(c2=O)Cc2cc3ccccc3nc2-1 [CPT, camptothecin]
[1]
  amount of TOP1-DNA covalent complexes: No change
[2]; ZR/ISG15-shRNA1 vs control-shRNA cells, one hr acute exposure
  resistance to CPT, clonogenic survival: much more resistant
[2]; ZR/UbcH8-shRNA1 vs ZR/control-shRNA2, one-hr acute CPT exposure
  resistance to CPT, clonogenic survival: much more resistant
[2]; ZR/UbcH8-shRNA2 vs ZR/control-shRNA2, one-hr acute CPT exposure
  resistance to CPT, clonogenic survival: much more resistant

Reference: patent US20100111874A1, “METHOD OF CANCER DETECTION AND TREATMENT” (University of Medicine and Dentistry of New Jresey, priority 2007, published 2010)
